In patent publication US9132098B2, “Stable nanocomposition comprising doxorubicin, process for the preparation thereof, its use and pharmaceutical compositions containing it” (BBS Nanotechnology Ltd., priority 2013, dated 2015):

Tested on: SK-OV-3 human ovary adenocarcinoma cells
Experiment: Comparative efficacy study in SK-OV-3 s.c. xenograft SCID mouse model of ovary cancer
Type: in vivo, SCID mice
Settings: 78th day after tumor inoculation, total dose DOX 23, NP 17, NP-PEG 23 mg/kg
Method: Tumor was induced in mice by implanting SK-OV-3 human ovary adenocarcinoma cells s.c. in upper region of back of SCID mice and allowing the tumors to develop to appreciable size over 40 days (30 mm3). The comparative efficacy study of six i.v. injection (day 43, 50, 57, 65, 71 and 78) of 5% glucose, doxorubicin (DOX) 3.8 mg/kg, NP […] and NP-PEG 3.8 mg/kg) was evaluated over 104 days. In this table there are the tumor volume of mice on 78th day after tumor inoculation (data represent mean±SEM of five mice per_group) and body weight of mice on 78th day after tumor inoculation (Data represent mean±STDEV of five mice per group). The table below discloses the comparative efficacy study in SK-OV-3 s.c. xenograft SCID mouse model of ovary cancer.

COc1cccc2c1C(=O)c1c(O)c3c(c(O)c1C2=O)C[C@@](O)(C(=O)CO)C[C@@H]3O[C@H]1C[C@H](N)[C@H](O)[C@H](C)O1 [DOX]
Tumor volume (mm^3) (six i.v. injections (day 43-78), mean±SEM of five mice): 294.8 ± 216 mm^3 | Animal weight (six i.v. injections, mean±STDEV of five mice): 22.54 ± 0.77 g
